Reference: patent publication US20170348213A1, “Oral Care Composition” (Colgate-Palmolive Company, priority 2014, published 2017)

Legend:
[1] = tested on: oral mucosal cells; assay: Cell irritating effect on oral mucosal cells (Janus Green B staining, optical microscope); assay type: cell-based; conditions: aqueous solution
Experimental: Aqueous solutions of different concentrations of sodium […] (SLS) and sodium methyl cocoyl taurate (SMCT) were prepared. The solutions were used to challenge oral mucosal cells. Treated cells were stained with Janus Green B and morphological changes were observed using an optical microscope to determine whether or not the cells had become irritated or remained intact. Cells were identified as normal if the cells were in tact, the cell wall was smooth, the color of the cell core was clear/dark, and if organelles could be identified. Cells were identified as irritated if the cells could not be clearly defined with a blurring of the cell wall, if there was crimping of the cell, if the color of the cell core and plasma is lighter than observed for an intact cell, and if organelles could not be identified. […]

[2] = Antioxidant activity, LPO-CC kit (Kamiya Biomedical Company); assay type: biochemical; conditions: agent at 1% in ethanol
Experimental: The antioxidant activity of rutin was tested using an LPO-CC kit (Kamiya Biomedical Company), and compared to that of vitamin E. (The agents were tested in an amount of 1% in ethanol). The lower the optical density, the better the antioxidant capacity. The higher the percentage cumeme hydroperoxide reduction, the better the antioxidant capacity. The antioxidant efficacy of the formulations was also tested using the methods described in Example 5. The results are illustrated in Table 9a and 9b.

Substance | Cell irritating effects of aqueous surfactant solutions: Results ([1]; 0.48 % active weight surfactant) | Cell irritating effects of aqueous surfactant solutions: Results ([1]; 1.40 % active weight surfactant) | Cell irritating effects of aqueous surfactant solutions: Results ([1]; 1.71 % active weight surfactant) | Cell irritating effects of aqueous surfactant solutions: Results ([1]; 2.20 % active weight surfactant) | % reduction of cumeme hydroperoxide ([2]; higher = better antioxidant capacity) | Optical Density at 675 nm ([2]; lower optical density = better antioxidant capacity)
sodium lauryl ether sulfate [SLS] | No cell irritation | Cells irritated | Cells irritated | Cells irritated |  | 
vitamin E |  |  |  |  | 50.4719% | 0.2204
